The assay concerns the target T1, human mAChR M1 (Homo sapiens, UniProt P11229).
T1 construct: host or cells: CHO-K1
T1 sequence (P11229 1-460): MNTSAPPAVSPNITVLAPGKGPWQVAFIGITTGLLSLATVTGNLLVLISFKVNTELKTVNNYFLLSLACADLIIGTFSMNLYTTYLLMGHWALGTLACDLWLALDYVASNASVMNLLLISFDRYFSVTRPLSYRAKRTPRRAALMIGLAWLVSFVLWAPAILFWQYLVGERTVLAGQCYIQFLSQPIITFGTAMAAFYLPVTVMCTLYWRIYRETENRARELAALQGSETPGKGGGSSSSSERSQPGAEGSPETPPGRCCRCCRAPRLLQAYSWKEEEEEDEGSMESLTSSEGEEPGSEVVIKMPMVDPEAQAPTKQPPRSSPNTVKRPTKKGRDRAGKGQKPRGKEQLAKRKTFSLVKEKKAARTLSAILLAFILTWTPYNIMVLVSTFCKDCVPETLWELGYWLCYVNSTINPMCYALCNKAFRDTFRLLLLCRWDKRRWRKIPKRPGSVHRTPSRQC
The assay is described as follows: mAChR M1 cell-based functional assay (calcium mobilization, Fluo-4, FDSS). The note with it: CHO-K1 cells stably expressing hM1; for Emax: EC20 acetylcholine response, read-out: Human M1 Emax; for EC50: positive allosteric modulator activity as increase in the EC20 acetylcholine response. As to the method: Chinese hamster ovary (CHO-K1) cells stably expressing rat (r)M1 were purchased from the American Type Culture Collection and cultured according to their indicated protocol. […] To make stable rM2, hM2, rM3, hM4, and rM4 cell lines for use in calcium mobilization assays, these cells also were stably transfected with a chimeric G-protein (Gqi5) (provided by B. R. Conklin, University of California, San Francisco) using Lipofectamine 2000. rM1, hM1, rM3, hM3, rM5, and hM5 cells were grown in Ham's F-12 medium containing 10% heat-inactivated fetal bovine serum (FBS), 20 mM HEPES, and 50 μg/mL G418 sulfate. rM2-Gqi5, hM2-Gqi5, and hM4-Gqi5 cells were grown in the same medium also containing 500 μg/mL Hygromycin B. Stable rM4-Gqi5 cells were grown in DMEM containing 10% heat-inactivated FBS, 20 mM HEPES, 400 μg/mL G418 sulfate, and 500 μg/mL Hygromycin B.
For high throughput measurement of agonist-evoked increases in intracellular calcium, CHO-K1 cells stably expressing muscarinic receptors were plated in growth medium lacking G418 and hygromycin at 15,000 cells/20 μL/well in Greiner 384-well black-walled, tissue culture (TC)-treated, clear-bottom plates (VWR). Cells were incubated overnight at 37° C. and 5% CO2. […] Compound master plates were formatted in an 11 point CRC format (1:3 dilutions) in 100% DMSO with a starting concentration of 10 mM using the BRAVO liquid handler (Agilent). Test compound CRCs were then transferred to daughter plates (240 nL) using the Echo acoustic plate reformatter (Labcyte, Sunnyvale, Calif.) and then diluted into assay buffer (40 μL) to a 2× stock using a Thermo Fisher Combi (Thermo Fisher Scientific, Waltham, Mass.).
Calcium flux was measured using the Functional Drug Screening System (FDSS) 6000 (Hamamatsu Corporation, Tokyo, Japan) as an increase in the fluorescent static ratio. Compounds were applied to cells (20 μL, 2×) using the automated system of the FDSS 6000 at 4 s into the 300 s protocol and the data were collected at 1 Hz. […] Agonist activity was analyzed as a concentration-dependent increase in calcium mobilization upon compound addition. Positive allosteric modulator activity was analyzed as a concentration-dependent increase in the EC20 acetylcholine response. Antagonist activity was analyzed as a concentration-dependent decrease in the EC80 acetylcholine response. Concentration-response curves were generated using a four-parameter logistical equation in XLfit curve fitting software (IDBS, Bridgewater, N.J.) for Excel (Microsoft, Redmond, Wash.) or Prism (GraphPad Software, Inc., San Diego, Calif.).
The compound numbers correspond to the compound numbers used in Table 1.
On the technique in general: A change in cytosolic calcium serves as a functional read-out for many receptors and channels.

Structures are written as SMILES.

A word on the Emax: it is the greatest response seen or fitted, relative to the assay's reference. A word on the EC50: it is the concentration needed to bring the measured effect to its halfway point. On to `Cn1ccc2c(Cc3ccc(-c4cscn4)cc3)cc(C(=O)N[C@H]3CCOC3)nc21` [Compound 33, 1-methyl-N-[(3S)-tetrahydrofuran-3-yl]-4-[(4-thiazol-4-ylphenyl)methyl]pyrrolo[2,3-b]pyridine-6-carboxamide], for which the Emax amounted to 50.6% and the EC50 was determined as 2.91 µM.

With `Cn1ccc2c(Cc3ccc(-c4cscn4)cc3)cc(C(=O)N[C@@H]3CCOC3)nc21` [Compound 34, 1-methyl-N-[(3R)-tetrahydrofuran-3-yl]-4-[(4-thiazol-4-ylphenyl)methyl]pyrrolo[2,3-b]pyridine-6-carboxamide], the Emax was 54.8% and the half-maximal effective concentration (EC50) amounted to 2.19 µM.

Turning to `Cn1ccc2c(Cc3ccc(-c4cscn4)cc3)cc(C(=O)NC3COC3)nc21` [Compound 35, 1-methyl-N-(oxetan-3-yl)-4-[(4-thiazol-4-ylphenyl)methyl]pyrrolo[2,3-b]pyridine-6-carboxamide], the maximal effect (Emax) is 40.2% and the half-maximal effective concentration (EC50) was determined as 1.23 µM.

For the compound `Cn1ccc2c(Cc3ccc(-c4cscn4)cc3)cc(C(=O)NC3CN(C4COC4)C3)nc21` [Compound 36, 1-methyl-N-[1-(oxetan-3-yl)azetidin-3-yl]-4-[(4-thiazol-4-ylphenyl)methyl]pyrrolo[2,3-b]pyridine-6-carboxamide], the Emax amounted to 66% and the concentration for a half-maximal effect (EC50) stood at 3.12 µM.

Consider `Cn1ccc(-c2ccc(Cc3cc(C(=O)N[C@H]4CCOC[C@@H]4O)nc4c3ccn4C)cc2)n1` [Compound 37, N-[(3R,4S)-3-hydroxytetrahydropyran-4-yl]-1-methyl-4-[[4-(1-methylpyrazol-3-yl)phenyl]methyl]pyrrolo[2,3-b]pyridine-6-carboxamide], for which the maximum response (Emax) was determined as 76.7% and the EC50 is 0.06 µM.

As for `Cn1ccc(-c2ccc(Cc3cc(C(=O)N[C@H]4CCCC[C@@H]4O)nc4c3ccn4C)cc2)n1` [Compound 38, N-[(1S,2S)-2-hydroxycyclohexyl]-1-methyl-4-[[4-(1-methylpyrazol-3-yl)phenyl]methyl]pyrrolo[2,3-b]pyridine-6-carboxamide], the maximal effect (Emax) was found to be 78.6% and the concentration for a half-maximal effect (EC50) is 0.13 µM.

In the case of `Cn1ccc(-c2ccc(Cc3cc(C(=O)NC4CCOCC4)nc4c3ccn4C)cc2)n1` [Compound 39, 1-methy1-4-[[4-(1-methylpyrazol-3-yl)phenyl]methyl]-N-tetrahydropyran-4-yl-pyrrolo[2,3-b]pyridine-6-carboxamide], the Emax amounted to 81.2% and the EC50 amounted to 0.75 µM.

As for `Cn1ccc(-c2ccc(Cc3cc(C(=O)NC4CC5(COC5)C4)nc4c3ccn4C)cc2)n1` [Compound 40, 1-methyl-4-[[4-(1-methylpyrazol-3-yl)phenyl]methyl]-N-(2-oxaspiro[3.3]heptan-6-yl)pyrrolo[2,3-b]pyridine-6-carboxamide], the Emax is 74% and the EC50 was 0.75 µM.

Turning to `Cn1ccc(-c2ccc(Cc3cc(C(=O)N[C@@H]4CC[C@H]4O)nc4c3ccn4C)cc2)n1` [Compound 41, N-[(1R,2R)-2-hydroxycyclobutyl]-1-methy1-4-[[4-(1-methylpyrazol-3-yl)phenyl]methyl]pyrrolo[2,3-b]pyridine-6-carboxamide], the Emax was 78% and the EC50 was 1.05 µM.

For the compound `Cn1ccc(-c2ccc(Cc3cc(C(=O)N[C@@H]4CCC[C@H]4O)nc4c3ccn4C)cc2)n1` [Compound 42, N-[(1R,2R)-2-hydroxycyclopentyl]-1-methy1-4-[[4-(1-methylpyrazol-3-yl)phenyl]methyl]pyrrolo[2,3-b]pyridine-6-carboxamide], the maximal response (Emax) was determined as 74.3% and the EC50 turned out to be 0.37 µM.

With `Cn1ccc(-c2ccc(Cc3cc(C(=O)NCC4CCOCC4)nc4c3ccn4C)cc2)n1` [Compound 43, 1-methyl-4-[[4-(1-methylpyrazol-3-yl)phenyl]methyl]-N-(tetrahydropyran-4-ylmethyl)pyrrolo[2,3-b]pyridine-6-carboxamide], the Emax was 49.6% and the EC50 worked out at 0.61 µM.

As for `Cn1ccc(-c2ccc(Cc3cc(C(=O)NC4COC4)nc4c3ccn4C)cc2)n1` [Compound 44, 1-methy1-4-[[4-(1-methylpyrazol-3-yl)phenyl]methyl]-N-(oxetan-3-yl)pyrrolo[2,3-b]pyridine-6-carboxamide], the maximal effect (Emax) stood at 56.1% and the concentration giving a half-maximal response (EC50) amounted to 6.28 µM.

As for `Cn1cc(-c2ccc(Cc3cc(C(=O)N[C@H]4CCOC[C@@H]4O)nc4c3ccn4C)cn2)cn1` [Compound 45, N-[(3R,4S)-3-hydroxytetrahydropyran-4-yl]-1-methyl-4-[[6-(1-methylpyrazol-4-yl)-3-pyridyl]methyl]pyrrolo[2,3-b]pyridine-6-carboxamide], the Emax came out at 74.3% and the EC50 stood at 0.01 µM.

In the case of `Cn1cc(-c2ccc(Cc3cc(C(=O)N[C@H]4CCCC[C@@H]4O)nc4c3ccn4C)cn2)cn1` [Compound 46, N-[(1S,2S)-2-hydroxycyclohexyl]-1-methyl-4-[[6-(1-methylpyrazol-4-yl)-3-pyridyl]methyl]pyrrolo[2,3-b]pyridine-6-carboxamide], the Emax came out at 73.9% and the half-maximal effective concentration (EC50) turned out to be 0.03 µM.

As to `Cn1cc(-c2ccc(Cc3cc(C(=O)NC4CC5(COC5)C4)nc4c3ccn4C)cn2)cn1` [Compound 48, 1-methyl-4-[[6-(1-methylpyrazol-4-yl)-3-pyridyl]methyl]-N-(2-oxaspiro[3.3]heptan-6-yl)pyrrolo[2,3-b]pyridine-6-carboxamide], the Emax turned out to be 87.1% and the 50% effective concentration (EC50) turned out to be 0.14 µM.

As for `Cn1cc(-c2ccc(Cc3cc(C(=O)NC4CCOC(C)(C)C4)nc4c3ccn4C)cn2)cn1` (stereo not drawn) [Compound 49, N-(2,2-dimethyltetrahydropyran-4-yl)-1-methy1-4-[[6-(1-methylpyrazol-4-yl)-3-pyridyl]methyl]pyrrolo[2,3-b]pyridine-6-carboxamide], the Emax came out at 87.9% and the concentration for a half-maximal effect (EC50) stood at 0.18 µM.

`Cn1cc(-c2ccc(Cc3cc(C(=O)N[C@H]4CC[C@@H]4O)nc4c3ccn4C)cn2)cn1` [Compound 50, N-[(1S,2S)-2-hydroxycyclobutyl]-1-methyl-4-[[6-(1-methylpyrazol-4-yl)-3-pyridyl]methyl]pyrrolo[2,3-b]pyridine-6-carboxamide]: the Emax was 86.2% and the half-maximal effective concentration (EC50) is 0.38 µM.

In the case of `Cc1nc(-c2ccc(Cc3cc(C(=O)N[C@H]4CCOC[C@@H]4O)nc4c3ccn4C)cc2)co1` [Compound 51, N-[(3R,4S)-3-hydroxytetrahydropyran-4-yl]-1-methyl-4-[[4-(2-methyloxazol-4-yl)phenyl]methyl]pyrrolo[2,3-b]pyridine-6-carboxamide], the maximum response (Emax) amounted to 83.4% and the half-maximal effective concentration (EC50) came out at 0.03 µM.

For `Cc1nc(-c2ccc(Cc3cc(C(=O)N[C@H]4CCCC[C@@H]4O)nc4c3ccn4C)cc2)co1` [Compound 52, N-[(1S,2S)-2-hydroxycyclohexyl]-1-methyl-4-[[4-(2-methyloxazol-4-yl)phenyl]methyl]pyrrolo[2,3-b]pyridine-6-carboxamide], the Emax was found to be 80.1% and the EC50 was determined as 0.1 µM.

Take `Cc1nc(-c2ccc(Cc3cc(C(=O)NC4CC5(COC5)C4)nc4c3ccn4C)cc2)co1` [Compound 54, 1-methyl-4-[[4-(2-methyloxazol-4-yl)phenyl]methyl]-N-(2-oxaspiro[3.3]heptan-6-yl)pyrrolo[2,3-b]pyridine-6-carboxamide]: the Emax was found to be 84.6% and the half-maximal effective concentration (EC50) turned out to be 0.38 µM.

In the case of `Cc1nc(-c2ccc(Cc3cc(C(=O)NC4CCOC(C)(C)C4)nc4c3ccn4C)cc2)co1` (stereo not drawn) [Compound 55, N-(2,2-dimethyltetrahydropyran-4-yl)-1-methyl-4-[[4-(2-methyloxazol-4-yl)phenyl]methyl]pyrrolo[2,3-b]pyridine-6-carboxamide], the Emax came out at 86.1% and the EC50 was 0.52 µM.

The values above are taken from patent US10899759B2, “Positive allosteric modulators of the muscarinic acetylcholine receptor M1” (Vanderbilt University, priority 2016, dated 2021).
